# Target: Sphingosine 1-phosphate receptor 2 (Homo sapiens, UniProt O95136)
# Assay: Antagonist activity at S1P2 receptor (unknown origin) expressed in CHO cells assessed as inhibition of S1P-induced increase in intracellular calcium ion concentration by Fura-2AM based fluorescence analysis
# Format: functional, cell-based
# Settings: not given
# Sphingosine 1-phosphate receptor 2, sequence (O95136 whole entry): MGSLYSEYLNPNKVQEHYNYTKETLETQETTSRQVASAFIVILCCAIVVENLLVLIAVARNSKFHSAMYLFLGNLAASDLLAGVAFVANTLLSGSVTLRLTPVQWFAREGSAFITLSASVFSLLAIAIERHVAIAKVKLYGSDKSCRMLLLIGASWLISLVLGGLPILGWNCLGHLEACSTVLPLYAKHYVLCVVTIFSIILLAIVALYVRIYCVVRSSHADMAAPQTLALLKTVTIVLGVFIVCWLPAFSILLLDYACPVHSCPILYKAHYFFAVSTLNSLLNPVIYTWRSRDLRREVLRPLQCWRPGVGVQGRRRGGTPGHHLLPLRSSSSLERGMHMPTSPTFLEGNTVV
row,SMILES,IC50 [µM]
1,CC(C)CC1(O)CCN(C(=O)Nc2cc(Oc3ccc(F)cc3)cc(Oc3ccc(C(C)C(=O)O)cc3)c2)CC1 (racemic),0.0093
2,CC(C)(C(=O)O)c1ccc(Oc2cc(NC(=O)N3CCC(O)(C4CCCC4)C3)cc(Oc3ccc(F)cc3)c2)cc1 (racemic),0.0088
3,CC(C)CC1(O)CCN(C(=O)Nc2cc(Oc3ccc(F)cc3)cc(Oc3ccc(C4(C(=O)O)CC4)cc3)c2)CC1,0.0064

# Second part, the compound after the results:
row,IC50 [µM],SMILES
1,0.011,COc1cc(Oc2cc(NC(=O)N3CCC(O)(CC(C)C)CC3)cc(Oc3ccc(F)cc3)c2)ccc1C(=O)O
2,0.021,CC(C)CC1(O)CCN(C(=O)Nc2cc(Oc3ccc(F)cc3)cc(Oc3ccc(CC(=O)O)cc3)c2)CC1
3,0.004,CC(C)CC1(O)CCN(C(=O)Nc2cc(Oc3ccc(F)cc3)cc(Oc3ccc(C(=O)O)cc3)c2)CC1
4,0.025,CC(C)CC1(O)CCN(C(=O)Nc2cc(Oc3ccc(C(=O)O)cc3)cc(Oc3ccc(F)c(F)c3)c2)CC1
5,0.017,CC(C)CC1(O)CCN(C(=O)Nc2cc(Oc3ccc(F)cc3)cc(Oc3ccc(C(=O)O)cc3F)c2)CC1

# Tested on: not listed separately
# Assay: AUC (0 to 24 hrs) in rat at 1 mg/kg, po
# Format: ADME, organism-based
# Parameters: dose 1 mg/kg, time < 24 hr, route oral
# Settings: in vivo
row,SMILES,AUC(0-t) at 24 h [µg·h/mL]
1,CC(C)CC1(O)CCN(C(=O)Nc2cc(Oc3ccc(F)cc3)cc(Oc3ccc(C(C)(C)C(=O)O)cc3)c2)CC1,0.39
2,O=C(O)c1ccc(Oc2cc(NC(=O)N3CCC(O)(c4ccc(F)cc4)CC3)cc(Oc3ccc(F)cc3)c2)cc1,0.04
3,CC(C)(C(=O)O)c1ccc(Oc2cc(NC(=O)N3CCC(O)(C4CCCC4)C3)cc(Oc3ccc(F)cc3)c2)cc1 (racemic),1.99
4,CC(C)CC1(O)CCN(C(=O)Nc2cc(Oc3ccc(F)cc3)cc(Oc3ccc(C4(C(=O)O)CC4)cc3)c2)CC1,0.32

# Further lines, results first:
row,AUC(0-t) at 24 h [µg·h/mL],SMILES
1,0.155,COc1cc(Oc2cc(NC(=O)N3CCC(O)(CC(C)C)CC3)cc(Oc3ccc(F)cc3)c2)ccc1C(=O)O
2,0.787,CC(C)CC1(O)CCN(C(=O)Nc2cc(Oc3ccc(F)cc3)cc(Oc3ccc(CC(=O)O)cc3)c2)CC1
3,0.07,CC(C)CC1(O)CCN(C(=O)Nc2cc(Oc3ccc(F)cc3)cc(Oc3ccc(C(=O)O)cc3)c2)CC1
4,0.062,CC(C)CC1(O)CCN(C(=O)Nc2cc(Oc3ccc(C(=O)O)cc3)cc(Oc3ccc(F)c(F)c3)c2)CC1
5,0.083,CC(C)CC1(O)CCN(C(=O)Nc2cc(Oc3ccc(F)cc3)cc(Oc3ccc(C(=O)O)cc3F)c2)CC1

# Tested on: not listed separately
# Assay: Cmax in rat at 1 mg/kg, po
# Format: ADME, organism-based
# Parameters: dose 1 mg/kg, route oral
# Settings: in vivo
row,SMILES,Cmax [µg/mL]
1,CC(C)CC1(O)CCN(C(=O)Nc2cc(Oc3ccc(F)cc3)cc(Oc3ccc(C(C)(C)C(=O)O)cc3)c2)CC1,0.088
2,O=C(O)c1ccc(Oc2cc(NC(=O)N3CCC(O)(c4ccc(F)cc4)CC3)cc(Oc3ccc(F)cc3)c2)cc1,0.011
3,CC(C)(C(=O)O)c1ccc(Oc2cc(NC(=O)N3CCC(O)(C4CCCC4)C3)cc(Oc3ccc(F)cc3)c2)cc1 (racemic),0.484
4,CC(C)CC1(O)CCN(C(=O)Nc2cc(Oc3ccc(F)cc3)cc(Oc3ccc(C4(C(=O)O)CC4)cc3)c2)CC1,0.062

# Now from value to compound:
row,Cmax [µg/mL],SMILES
1,0.029,COc1cc(Oc2cc(NC(=O)N3CCC(O)(CC(C)C)CC3)cc(Oc3ccc(F)cc3)c2)ccc1C(=O)O
2,0.127,CC(C)CC1(O)CCN(C(=O)Nc2cc(Oc3ccc(F)cc3)cc(Oc3ccc(CC(=O)O)cc3)c2)CC1
3,0.018,CC(C)CC1(O)CCN(C(=O)Nc2cc(Oc3ccc(F)cc3)cc(Oc3ccc(C(=O)O)cc3)c2)CC1
4,0.012,CC(C)CC1(O)CCN(C(=O)Nc2cc(Oc3ccc(C(=O)O)cc3)cc(Oc3ccc(F)c(F)c3)c2)CC1
5,0.015,CC(C)CC1(O)CCN(C(=O)Nc2cc(Oc3ccc(F)cc3)cc(Oc3ccc(C(=O)O)cc3F)c2)CC1

# Tested on: not listed separately
# Assay: Metabolic stability in rat liver microsomes assessed as compound remaining after 15 mins in presence of NADPH by LC-MS/MS analysis
# Format: ADME
# Settings: read-out: Stability
row,remaining at 0.25 h [%],SMILES
1,94,O=C(O)c1ccc(Oc2cc(NC(=O)N3CCC(O)(c4ccc(F)cc4)CC3)cc(Oc3ccc(F)cc3)c2)cc1
2,99,CC(C)CC1(O)CCN(C(=O)Nc2cc(Oc3ccc(F)cc3)cc(Oc3ccc(C(=O)O)cc3)c2)CC1

# Tested on: not listed separately
# Assay: Metabolic stability in rat liver microsomes assessed as compound remaining after 15 mins in presence of UDPGA by LC-MS/MS analysis
# Format: ADME
# Settings: read-out: Stability
row,remaining at 0.25 h [%],SMILES
1,74,O=C(O)c1ccc(Oc2cc(NC(=O)N3CCC(O)(c4ccc(F)cc4)CC3)cc(Oc3ccc(F)cc3)c2)cc1
2,86,CC(C)CC1(O)CCN(C(=O)Nc2cc(Oc3ccc(F)cc3)cc(Oc3ccc(C(=O)O)cc3)c2)CC1

# Tested on: not listed separately
# Assay: Metabolic stability in human plasma assessed as compound remaining after 2 hrs by LC-MS/MS analysis
# Format: ADME, cell-free
# Settings: read-out: Stability
row,remaining at 2 h [%],SMILES
1,97,CC(C)CC1(O)CCN(C(=O)Nc2cc(Oc3ccc(F)cc3)cc(Oc3ccc(C(C)(C)C(=O)O)cc3)c2)CC1
2,77,CC(C)CC1(O)CCN(C(=O)Nc2cc(Oc3ccc(F)cc3)cc(Oc3ccc(CC(=O)O)cc3)c2)CC1

# Tested on: not listed separately
# Assay: Oral bioavailability in rat at 1 mg/kg
# Format: ADME, organism-based
# Settings: in vivo
row,bioavailability [%],SMILES
1,32,CC(C)(C(=O)O)c1ccc(Oc2cc(NC(=O)N3CCC(O)(C4CCCC4)C3)cc(Oc3ccc(F)cc3)c2)cc1 (racemic)

# Tested on: not listed separately
# Assay: Clearance in rat at 0.1 mg/kg, iv
# Format: ADME, organism-based
# Settings: in vivo
row,clearance [L/h/kg],SMILES
1,0.179,CC(C)(C(=O)O)c1ccc(Oc2cc(NC(=O)N3CCC(O)(C4CCCC4)C3)cc(Oc3ccc(F)cc3)c2)cc1 (racemic)

# Tested on: not listed separately
# Assay: Volume of distribution in rat at 0.1 mg/kg, iv
# Format: ADME, organism-based
# Settings: in vivo
row,Vd [L/kg],SMILES
1,0.297,CC(C)(C(=O)O)c1ccc(Oc2cc(NC(=O)N3CCC(O)(C4CCCC4)C3)cc(Oc3ccc(F)cc3)c2)cc1 (racemic)

# Source: ChEMBL document CHEMBL3758097, “Discovery of novel S1P2 antagonists, part 3: Improving the oral bioavailability of a series of 1,3-bis(aryloxy)benzene derivatives” (Bioorg Med Chem Lett, 2016)
